Where a SMILES comes first, the peptide text is derived from it. Bridges are numbered along the chain shown (N, C = ends). [ ]: non-standard residue; d: D form. 2Nal = N[C@@H](Cc1ccc2ccccc2c1)C(=O)O; Bta = N[C@@H](Cc1csc2ccccc12)C(=O)O; Pen = CC(C)(S)[C@H](N)C(=O)O; Tle = CC(C)(C)[C@H](N)C(=O)O; Pip = O=C(O)[C@@H]1CCCCN1
Legend:
[1] = biological target: T1, CAL PDZ domain (CALP5-His) (Homo sapiens, UniProt Q9HD26); experiment: FP/FA-based competition assay, Condition A (probe peptide 26); type: binding; settings: Condition A (superscript a): 50 nM probe peptide 26, 100 nM CALP5-His, 2 mM TCEP
T1 construct: His
Source text: First, the C-terminal valine (position 0) was replaced with a variety of residues and evaluated for binding to CAL PDZ domain in silico.

HeLa cells = experiment: Cellular uptake efficiency by flow cytometry; type: cell-based; settings: HeLa cells
Protocol: (§1) Cellular Uptake Efficiency: HeLa cells were seeded into 12-well cell-culture treated plates at a final density of 15×10^4 cells/well in DMEM supplemented with 10% FBS and 1% penicillin/streptomycin and incubated overnight at 37° ° C. and 5% CO2. After 24 h, the media was aspirated followed by washing the cells three times with warm DPBS. Peptides were diluted to a final concentration of 5 μM in DMEM containing 10% FBS with 1% penicillin/streptomycin, added to each well and then incubated for 2 h at 37° C. and 5% CO2. After 2 h, treatment media was aspirated and the cells were washed three times with ice-cold DPBS. Cells were removed from the plate via treatment with trypsin/EDTA and then harvested in ice-cold DPBS followed by centrifugation at ×300 RCF, 4° C. for 5 min. Cells were resuspended in DPBS and quantified using a BD Biosciences LSR II flow cytometer and gated using FlowJo. Values for uptake are provided as a percentage relative to positive control, CPP9 ([cyclo-fΦRrRrQ]-miniPEG-K[NF]).
as §1, with “Cellular Uptake. HeLa cells” for “Cellular Uptake Efficiency: HeLa cells”, “at 37° C. and” for “at 37° ° C. and”, “37° C. with 5% CO2.” for “37° C. and 5% CO2.”, “centrifugation at 300 g, 4° C.” for “centrifugation at ×300 RCF, 4° C.”, “control, CPP9 ([cyclo-fΦRrRrQ]-miniPEG-K[NF]), which has a 62% cytosolic entry efficiency. PGD97 entered HeLa cells at 60% efficiency relative to CPP9, corresponding to an absolute cytosolic entry efficiency of ˜36% (FIG. 9).” for “control, CPP9 ([cyclo-fΦRrRrQ]-miniPEG-K[NF]).”

[2] = system: HCT116 (colorectal cancer) cells; experiment: Cytotoxicity, MTT assay; type: cell-based; settings: 72 h, up to 50 μM
Protocol: (§2) Cytotoxicity. CFBE, HCT116 (colorectal cancer), or H358 (lung cancer) cells were seeded into a 96-well microplate (5000 cells per well) in full growth media and incubated at 37° C. overnight. A serial dilution of PGD97 was prepared in DPBS and then added to each well. The treated cells were incubated at 37° C. with 5% CO2 for 72 h. Following compound treatment, 10 μL of MTT stock solution was added to each well. After an additional 4 h at 37° C., 100 μL of SDS-HCl solubilizing solution was added to each well and the plate was returned to the incubator overnight at 37° C. A Tecan Infinite M1000 Pro microplate reader was used the following morning to measure the absorbance of the formazan product at 565 nm.

H358 (lung cancer) cells = experiment: Cytotoxicity, MTT assay; type: cell-based; settings: 72 h, up to 50 μM
Protocol: as §2

CFBE cells [3] = experiment: Cytotoxicity, MTT assay; type: cell-based; settings: 72 h, up to 50 μM
Protocol: as §2

HCT116 cell spheroids = experiment: Intracellular stability by MALDI imaging; type: in vitro ADME; settings: after 4 or 24 h incubation with PGD97
Protocol: Intracellular Stability. PGD97 ([…]) was added to HCT116 cell spheroids in RPMI-1640 medium supplemented with 10% FBS and 1% penicillin/streptomycin and incubated for 4 or 24 h. After incubation, spheroids were washed 3× with DPBS, quickly frozen, embedded in a solid support, and cryo-sectioned. Prior to analysis, sinapinic acid was sublimed onto individual slides. The sample was imaged using a Bruker ultrafleXtreme MALDI-TOF-TOF and analyzed for the presence of proteolytic degradation fragments. Heatmaps, scaled relative to the most intense signal, were generated for the intact peptide (both 29 and 32) as well as ˜20 potential proteolytic fragments at each time point. […] A degradation fragment (#1) corresponding to proteolytic cleavage between Thr and Arg (FIG. 8B) was observed, but none of the other potential degradation products were observed. […] Most importantly, significant concentrations of intact peptide 29 was still present inside the cells after 24 h.

LC3-II = experiment: Autophagy in macrophages, western blotting for LC3-II; type: cell-based, human; settings: 100 nM, 48 h, ΔF508 CFTR macrophages
Protocol: Effect on Autophagy in Macrophage. Human primary ΔF508 CFTR macrophages were incubated with 10 μM VX809 (n=1) or 100 nM PGD97 (n=2) for 48 h in complete growth medium supplemented with 10% FBS and 1% penicillin/streptomycin at 37° C. Induction of autophagy was determined via western blotting for autophagy-associated protein LC3-II.

CFBE cells [4] = experiment: Short-circuit current, Ussing chamber; type: cell-based; settings: 100 nM with 10 μM VX661, relative to VX661 only control
Protocol: (§3) Effect on Ion Channel Activity. CFBE or patient-derived primary cells were seeded onto filter inserts and grown to confluence at 37° C. in complete growth medium containing 10% FBS and 1% penicillin/streptomycin. Once confluent, cells were gently washed with DPBS and 10 µM VX661 and/or 100 nM PGD97 were added in complete growth medium supplemented with 10% FBS and 1% penicillin/streptomycin for 4 h or 24 h at 37° ° C. before measuring short circuit current using an Ussing chamber. PGD97 improved the ion channel activity by 33% and 37% relative to VX661 only controls after 4 and 24 h, respectively (FIGS. 12A and 12B).

[5] = system: patient-derived primary cells; experiment: Short-circuit current, Ussing chamber; type: cell-based, human; settings: 100 nM with 10 μM VX661, 24 h
Protocol: as §3

ΔF508CFTR-FAP = experiment: ΔF508 CFTR membrane expression, FAP assay in HEK-293T cells; type: cell-based
Protocol: Effect on ΔF508 CFTR Membrane Expression. HEK-293T cells stably expressing ΔF508CFTR-FAP (Holleran et al. Mol. Med. 2012, 18, 685-696) were seeded into poly-L-lysine-coated white-wall, clear bottom 96-well plates (100,000 cells/well) in complete growth medium and incubated for 24 h at 27° ° C. or 37° C. and 5% CO2. After 24 h, media was aspirated from each well and washed twice with warm DPBS. Compound serial dilutions with or without 10 μM VX809 were added to each well in fresh penicillin/streptomycin-free media containing 10% FBS and incubated at 27° ° C. or 37° ° C. in 5% CO2 for 24 h. After 24 h, the media was aspirated and each well was washed 3× with warm DPBS. 500 nM MG-B-Tau and 500 nM Hoechst 33342 was added in DPBS and MG-B-Tau fluorescence was immediately measured on a TECAN Infinite M1000 plate reader (excitation=640 nm, emission=680 nm, 10 nm bandwidth, 16 distinct points per well). After measurement, the plate was returned to the incubator at 37° C. for 1 h before quantifying Hoechst 33342 fluorescence on a TECAN Infinite M1000 plate reader (excitation=362 nm, emission=492 nm, 5 nm bandwidth, identical points per well as measured for MG-B-Tau). Cell-count normalized fluorescent intensity was determined by dividing the per-well MG-B-Tau intensity by Hoechst intensity and then plotted relative to untreated control using GraphPad PRISM ver. 7.0.

SMILES: CC(=O)N[C@@H](CS)C(=O)N[C@@H](CCCNC(=N)N)C(=O)N[C@H](CCCNC(=N)N)C(=O)N[C@@H](CCCNC(=N)N)C(=O)N[C@@H](Cc1ccc2ccccc2c1)C(=O)N[C@@H](Cc1c[nH]c2ccccc12)C(=O)N[C@@H](CCC(N)=O)C(=O)N[C@H](C(=O)N[C@H](C(=O)N[C@@H](CCCNC(=N)N)C(=O)N[C@H](C(=O)O)C(C)(C)C)[C@@H](C)O)C(C)(C)S [Compound 22, Ac-Cys-Arg-(D-Arg)-Arg-(2-Nal)-Trp-Gln-Pen-Thr-Arg-Tle-OH] (Ac-CR[dR]R[2Nal]WQ[Pen]TR[Tle]-OH)
- IC50 [1]: 0.401 µM
- Uptake (% rel.) (HeLa cells; 5 μM, 2 h, relative to CPP9 (100%)): 17 ± 2%

SMILES: CC(=O)N[C@H]1CSSC(C)(C)[C@@H](C(=O)N[C@H](C(=O)N[C@@H](CCCNC(=N)N)C(=O)N[C@H](C(=O)O)C(C)(C)C)[C@@H](C)O)NC(=O)[C@@H]2CCCCN2C(=O)[C@H](Cc2csc3ccccc23)NC(=O)[C@H](Cc2ccc3ccccc3c2)NC(=O)[C@H](CCCNC(=N)N)NC(=O)[C@H](CCCNC(=N)N)NC(=O)[C@@H](CCCNC(=N)N)NC1=O [Compound 32, Ac-Cys*-(D-Arg)-Arg-Arg-Nal-Bta-Pip-Pen*-Thr-Arg-Tle-OH] (Ac-C[dR]RR[2Nal][Bta][Pip][Pen]TR[Tle]-OH; disulfide 1-8)
- cell viability [2]: did not significantly reduce the viability
- cell viability (H358 (lung cancer) cells): did not significantly reduce the viability
- cell viability (CFBE cells [3]): did not significantly reduce the viability
- cytosolic entry efficiency relative to CPP9 (HeLa cells; 5 μM, 2 h): 60%
- absolute cytosolic entry efficiency (HeLa cells; from relative efficiency and CPP9 value): ~36%
- presence of intact peptide in spheroids (HCT116 cell spheroids): not
- LC3-II protein levels (LC3-II): increased the LC3-II protein levels to nearly WT level
- improvement of ion channel activity (short-circuit current) (CFBE cells [4]; after 4 h): 33%
- improvement of ion channel activity (short-circuit current) (CFBE cells [4]; after 24 h): 37%
- ion channel activity (short-circuit current) [5]: significantly increased the ion channel activity
- concentrations at which increased expression was observed (ΔF508CFTR-FAP): 10 to 1000 nM
- cell surface expression of ΔF508CFTR-FAP (ΔF508CFTR-FAP; 10 μM PGD97): reduced its surface expression
- cell surface expression of ΔF508CFTR-FAP (ΔF508CFTR-FAP; PGD97 alone, 27° C., 24 h): slightly increased
- cell surface expression of ΔF508CFTR-FAP (ΔF508CFTR-FAP; in combination with 10 μM VX809, 27° C.): further increase in cell surface expression
